Measured values reported in publication PMC12108418, “Broad-Spectrum Gramicidin S Derivatives with Potent Activity Against Multidrug-Resistant Gram-Negative ESKAPE Pathogens” (Antibiotics, 2025).
In brackets after ≈: the same amount, converted by molar mass. Where two headings read alike, the source gives them in different places. Square brackets hold non-standard residues; d marks the D form. Peptide text beside a SMILES is read from it. Tle = CC(C)(C)[C@H](N)C(=O)O; Orn = NCCC[C@H](N)C(=O)O; Abu = CC[C@H](N)C(=O)O

Assays:
[1] = Analytical RP-HPLC retention time as measure of hydrophobicity; format: physicochemical; settings: measure of global hydrophobicity, Phenomenex Kinetex 2.6 µm C18 (150 × 4.6 mm), 0.7 mL/min, ACN/TFA (100:0.0008) and water/TFA (100:0.001)
Procedure: Peptide purification was carried out via preparative RP-HPLC on an Agilent 1260 Infinity II system (Santa Clara, CA, USA) equipped with a 21.2 × 150 mm Agilent ZORBAX Eclipse Plus C18 column, operating at a flow rate of 25 mL/min. The mobile phase consisted of acetonitrile containing 0.0008% trifluoroacetic acid (v/v) as the organic phase and water with 0.001% TFA as the aqueous phase. […] Analytical HPLC analysis was performed on a Hewlett-Packard Series 1100 instrument using a Phenomenex (Torrance, CA, USA) Kinetex C18 column (150 mm × 4.6 mm, 2.6 µm particle size), under identical solvent conditions, to confirm purity.
HRMS of peptide 1. […] HRMS of peptide 2. […] HRMS of peptide 3. […] HRMS of peptide 4. […] HRMS of peptide 5. […] HRMS of peptide 6. […] HRMS of peptide 7. […] HRMS of peptide 8. […] HRMS of peptide 9. […] HRMS of peptide 10. […] HRMS of peptide 11. […] HRMS of peptide 12. […] HRMS of peptide 13. […] HRMS of peptide 14. […] HRMS of peptide 15. […] HRMS of peptide 16. […] HRMS of peptide 17. […] HRMS of peptide 18. […] HRMS of peptide 19.

[2] = tested on: Escherichia coli (ATCC 25922); format: cell-based
Procedure: (§1) The antibacterial efficacy of peptides was assessed using the broth microdilution method in accordance with Clinical and Laboratory Standards Institute (CLSI) guidelines (M07-A10, 2015 [33]). The minimum inhibitory concentrations (MICs) were determined against Escherichia coli (ATCC 25922), Klebsiella pneumoniae (ATCC 33495), Pseudomonas aeruginosa (ATCC 27853), Acinetobacter baumannii (ATCC 19606), and Staphylococcus aureus (ATCC 29213 and ATCC USA300). Bacterial suspensions were standardised to 5 × 10^4 colony-forming units (CFUs)/well in cation-adjusted Mueller–Hinton broth (CAMHB). Peptides were dissolved in 25% DMSO and serially diluted two-fold across 96-well plates, reaching final concentrations ranging from 256 to 0.125 µg/mL. The wells were inoculated, ensuring a final volume of 100 µL per well, with a DMSO concentration of 1% (v/v) to minimise solvent interference. […] Vancomycin was used as the positive control for S. aureus. Polymyxin B served as the positive control for Gram-negative bacteria. CAMHB with 1% (v/v) DMSO (without peptides) was used as the negative control. All experiments were performed in triplicate (n = 3). Bacterial isolates were stored in tryptone soy broth with 30% glycerol at −80 °C for long-term preservation.

[3] = tested on: Pseudomonas aeruginosa (ATCC 27853); format: cell-based
Procedure: as §1

[4] = tested on: Acinetobacter baumannii (ATCC 19606); format: cell-based
Procedure: as §1

[5] = tested on: Klebsiella pneumoniae (ATCC 33495); format: cell-based
Procedure: as §1

human red blood cells = assay: Haemolysis assay; format: cell-based; settings: 1% human RBC suspension in HEPES-buffered saline pH 7.4, pooled from three donors, 0.125 to 256 μg/mL, 1 h, 37 °C, absorbance 540 and 410 nm, triplicate (n = 3)
Procedure: To evaluate haemolytic activity, fresh human blood was collected from three unrelated healthy volunteers to ensure donor variability. Red blood cells (RBCs) were separated by centrifugation at 3000 rpm for 5 min at 4 °C, followed by washing in HEPES-buffered saline (HBS; 150 mM NaCl, 5 mM HEPES-NaOH, pH 7.4). The samples were pooled, mixed, and all experiments were performed in triplicate to enhance reproducibility. Blood samples were used within 48 h of collection to preserve erythrocyte integrity. A 1% RBC suspension in HBS (200 μL) was distributed into 96-well plates, and peptide solutions (100 μL) were added to reach final concentrations ranging from 0.125 to 256 μg/mL. After a 1 h incubation at 37 °C, the plates were centrifuged (3000 rpm, 5 min, 4 °C), and 80 μL of each supernatant was transferred to a fresh microplate. Absorbance readings were taken at 540 nm and 410 nm to assess protein content and haemoglobin release, respectively. HBS served as a negative control and 1% Triton X-100 as a positive control (n = 3).

[6] = broth microdilution in CAMHB, 5 × 10^4 CFU/well, 1% DMSO, 37 °C, 16–20 h, 256 to 0.125 µg/mL, triplicate (n = 3)

SMILES | RP-HPLC retention time tR [1] [min] | MIC E. coli ATCC 25922 ([2]; ATCC 25922) [µg/mL] | MIC P. aeruginosa ATCC 27853 ([3]; ATCC 27853) [µg/mL] | MIC A. baumannii ATCC 19606 ([4]; ATCC 19606) [µg/mL] | MIC K. pneumonia ATCC 33495 ([5]; ATCC 33495) [µg/mL] | MIC P. aeruginosa ATCC 27853 [3, 6] [µg/mL] | HC50 (50% haemolytic concentration) (human red blood cells) [µg/mL] | MIC E. coli ATCC 25922 [2, 6] [µg/mL] | MIC A. baumannii ATCC 19606 [4, 6] [µg/mL] | MIC K. pneumonia ATCC 33495 [5, 6] [µg/mL]
CC(C)(C)[C@@H]1NC(=O)[C@H](CCCN)NC(=O)[C@H](C(C)(C)C)NC(=O)[C@@H]2CCCN2C(=O)[C@@H](Cc2ccccc2)NC(=O)[C@H](C(C)(C)C)NC(=O)[C@H](CCCN)NC(=O)[C@H](C(C)(C)C)NC(=O)[C@@H]2CCCN2C(=O)[C@@H](CCCNC(=N)N)NC1=O [Peptide 7] (cyclo([Orn][Tle][dF]P[Tle][Orn][Tle][dR]P[Tle])) | 16.92 | 16 (≈ 13.6 µM) | 32 (≈ 27.2 µM) | 4 (≈ 3.39 µM) | 32 (≈ 27.2 µM) | – | – | – | – | –
CC(C)C[C@@H]1NC(=O)[C@H](CCCN)NC(=O)[C@H](C(C)C)NC(=O)[C@@H]2CCCN2C(=O)[C@@H](CCCNC(=N)N)NC(=O)[C@H](CC(C)C)NC(=O)[C@H](CCCN)NC(=O)[C@H](C(C)C)NC(=O)[C@H](Cc2c[nH]c3ccccc23)NC(=O)[C@@H](Cc2ccccc2)NC1=O [Peptide 10] (cyclo(L[dF]WV[Orn]L[dR]PV[Orn])) | – | 16 (≈ 12.9 µM) | 32 (≈ 25.8 µM) | 8 (≈ 6.45 µM) | 32 (≈ 25.8 µM) | – | – | – | – | –
CC(C)C[C@@H]1NC(=O)[C@H](CCCN)NC(=O)[C@H](C(C)C)NC(=O)[C@H](Cc2c[nH]c3ccccc23)NC(=O)[C@@H](Cc2ccccc2)NC(=O)[C@H](CC(C)C)NC(=O)[C@H](CCCN)NC(=O)[C@H](C(C)C)NC(=O)[C@H](Cc2c[nH]c3ccccc23)NC(=O)[C@@H](CCCNC(=N)N)NC1=O [Peptide 11] (cyclo(L[dF]WV[Orn]L[dR]WV[Orn])) | – | 16 (≈ 12 µM) | 32 (≈ 24.1 µM) | 8 (≈ 6.02 µM) | 16 (≈ 12 µM) | – | – | – | – | –
CC(C)C[C@@H]1NC(=O)[C@H](CCCN)NC(=O)[C@H](C(C)(C)C)NC(=O)[C@@H]2CCCN2C(=O)[C@@H](Cc2ccccc2)NC(=O)[C@H](CC(C)C)NC(=O)[C@H](CCCN)NC(=O)[C@H](C(C)(C)C)NC(=O)[C@@H]2CCCN2C(=O)[C@@H](Cc2ccccc2)NC1=O [Peptide 13] (cyclo(L[dF]P[Tle][Orn]L[dF]P[Tle][Orn])) | – | – | – | – | – | 128 (≈ 109 µM) | 6.26 ± 0.35 | 32 (≈ 27.4 µM) | 32 (≈ 27.4 µM) | 256 (≈ 219 µM)
CC[C@@H]1NC(=O)[C@@H]2CCCN2C(=O)[C@@H](Cc2ccccc2)NC(=O)[C@H](CC(C)C)NC(=O)[C@H](CCCNC(=N)N)NC(=O)[C@H](C(C)C)NC(=O)[C@@H]2CCCN2C(=O)[C@@H](CCCNC(=N)N)NC(=O)[C@H](CC(C)C)NC(=O)[C@H](CCCN)NC1=O [Peptide 16] (cyclo([Abu][Orn]L[dR]PVRL[dF]P)) | 16.24 | 32 (≈ 27.2 µM) | – | 16 (≈ 13.6 µM) | 32 (≈ 27.2 µM) | 64 (≈ 54.3 µM) | – | – | – | –
CC[C@@H]1NC(=O)[C@@H]2CCCN2C(=O)[C@@H](CCCNC(=N)N)NC(=O)[C@H](CC(C)C)NC(=O)[C@H](CCCN)NC(=O)[C@H](CC)NC(=O)[C@@H]2CCCN2C(=O)[C@@H](Cc2ccccc2)NC(=O)[C@H](CC(C)C)NC(=O)[C@H](CCCNC(=N)N)NC1=O [Peptide 18] (cyclo([Abu][Orn]L[dR]P[Abu]RL[dF]P)) | 16.03 | 64 (≈ 55 µM) | 128 (≈ 110 µM) | 32 (≈ 27.5 µM) | 64 (≈ 55 µM) | – | – | – | – | –

Further lines, with some results ahead:

RP-HPLC retention time tR [1] [min] | MIC E. coli ATCC 25922 ([2]; ATCC 25922) [µg/mL] | MIC P. aeruginosa ATCC 27853 ([3]; ATCC 27853) [µg/mL] | MIC A. baumannii ATCC 19606 ([4]; ATCC 19606) [µg/mL] | MIC K. pneumonia ATCC 33495 ([5]; ATCC 33495) [µg/mL] | MIC P. aeruginosa ATCC 27853 [3, 6] [µg/mL] | SMILES | HC50 (50% haemolytic concentration) (human red blood cells) [µg/mL] | MIC E. coli ATCC 25922 [2, 6] [µg/mL] | MIC A. baumannii ATCC 19606 [4, 6] [µg/mL] | MIC K. pneumonia ATCC 33495 [5, 6] [µg/mL]
19.90 | 32 (≈ 27.4 µM) | 64 (≈ 54.7 µM) | 4 (≈ 3.42 µM) | 128 (≈ 109 µM) | – | CC(C)(C)[C@@H]1NC(=O)[C@H](CCCN)NC(=O)[C@H](C(C)(C)C)NC(=O)[C@@H]2CCCN2C(=O)[C@@H](Cc2ccccc2)NC(=O)[C@H](C(C)(C)C)NC(=O)[C@H](CCCN)NC(=O)[C@H](C(C)(C)C)NC(=O)[C@@H]2CCCN2C(=O)[C@@H](Cc2ccccc2)NC1=O [Peptide 1] (cyclo([Orn][Tle][dF]P[Tle][Orn][Tle][dF]P[Tle])) | – | – | – | –
– | 32 (≈ 27.7 µM) | 128 (≈ 111 µM) | 8 (≈ 6.92 µM) | 128 (≈ 111 µM) | – | CC(C)C[C@@H]1NC(=O)[C@H](CCCN)NC(=O)[C@H](C(C)(C)C)NC(=O)[C@@H]2CCCN2C(=O)[C@@H](Cc2ccccc2)NC(=O)[C@H](CC(C)C)NC(=O)[C@H](CCCN)NC(=O)[C@H](C(C)C)NC(=O)[C@@H]2CCCN2C(=O)[C@@H](Cc2ccccc2)NC1=O [Peptide 12] (cyclo(L[dF]P[Tle][Orn]L[dF]PV[Orn])) | – | – | – | –
16.47 | 16 (≈ 13.4 µM) | – | 8 (≈ 6.71 µM) | 16 (≈ 13.4 µM) | 32 (≈ 26.8 µM) | CC(C)C[C@@H]1NC(=O)[C@H](CCCN)NC(=O)[C@H](C(C)C)NC(=O)[C@@H]2CCCN2C(=O)[C@@H](Cc2ccccc2)NC(=O)[C@H](CC(C)C)NC(=O)[C@H](CCCNC(=N)N)NC(=O)[C@H](C(C)C)NC(=O)[C@@H]2CCCN2C(=O)[C@@H](CCCNC(=N)N)NC1=O [Peptide 15] (cyclo(L[dF]PV[Orn]L[dR]PVR)) | – | – | – | –
16.32 | 32 (≈ 27.2 µM) | – | 16 (≈ 13.6 µM) | 32 (≈ 27.2 µM) | 64 (≈ 54.3 µM) | CC[C@@H]1NC(=O)[C@@H]2CCCN2C(=O)[C@@H](CCCNC(=N)N)NC(=O)[C@H](CC(C)C)NC(=O)[C@H](CCCN)NC(=O)[C@H](C(C)C)NC(=O)[C@@H]2CCCN2C(=O)[C@@H](Cc2ccccc2)NC(=O)[C@H](CC(C)C)NC(=O)[C@H](CCCNC(=N)N)NC1=O [Peptide 17] (cyclo([Abu]RL[dF]PV[Orn]L[dR]P)) | – | – | – | –
17.15 | 16 (≈ 13.6 µM) | 16 (≈ 13.6 µM) | 4 (≈ 3.39 µM) | 32 (≈ 27.2 µM) | – | CC(C)C[C@@H]1NC(=O)[C@H](CCCN)NC(=O)[C@H](C(C)(C)C)NC(=O)[C@@H]2CCCN2C(=O)[C@@H](Cc2ccccc2)NC(=O)[C@H](CC(C)C)NC(=O)[C@H](CCCN)NC(=O)[C@H](C(C)(C)C)NC(=O)[C@@H]2CCCN2C(=O)[C@@H](CCCNC(=N)N)NC1=O [Peptide 19] (cyclo(L[dF]P[Tle][Orn]L[dR]P[Tle][Orn])) | – | – | – | –
